What was measured:
large (Lg) crabgrass [1] = assay: Test A preemergence; assay type: in vivo, Digitaria sanguinalis; details: for Crabgrass, Large plant response rating (0 to 100 scale): 125 g ai/ha
Procedure, shortened: (§1)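 Visual injury scored 0–100 (100 = complete control) against untreated controls about 10 days after treatment in a greenhouse. Test chemicals, formulated with surfactant in non-phytotoxic solvent, were sprayed on soil preemergence or on 2-10 cm, one- to two-leaf plants postemergence.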

rice = assay: Test B flooded paddy test; assay type: in vivo, Oryza sativa; details: Flood, 250 g ai/ha, 0 to 100 scale where 0 is no effect and 100 is complete control
Procedure, shortened: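 Scores from 0 (no effect) to 100 (complete control) are visual comparisons with controls, taken 13 to 15 days after compound was applied into floodwater 3 cm deep around 2-leaf plants.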

wild oat = assay: Test C postemergence; assay type: in vivo, Avena fatua; details: for Oat, Wild plant response rating: 31 g ai/ha
Procedure, shortened: (§2)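 Injury was assessed visually against controls 13 to 15 days after application, with 0 meaning no effect and 100 full control; missing entries are shown as a dash. Preemergence sprays hit seeded loam–sand soil, postemergence sprays hit 1- to 4-leaf plants.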

kochia = assay: Test C postemergence; assay type: in vivo, Kochia scoparia
Procedure, shortened: as §2

ragweed = assay: Test C postemergence; assay type: in vivo, Ambrosia elatior; details: for Ragweed plant response rating: 31 g ai/ha
Procedure, shortened: as §2

lambsquarters = assay: Test C preemergence; assay type: in vivo, Chenopodium album
Procedure, shortened: as §2

johnsongrass = assay: Test C preemergence; assay type: in vivo, Sorghum halepense
Procedure, shortened: as §2

large (Lg) crabgrass [2] = assay: Test C preemergence; assay type: in vivo, Digitaria sanguinalis
Procedure, shortened: as §2

wheat, winter = assay: Test C postemergence; assay type: in vivo, Triticum aestivum; details: for Wheat plant response rating: 31 g ai/ha
Procedure, shortened: as §2

corn = assay: Test A preemergence; assay type: in vivo, Zea mays; details: for Corn plant response rating (0 to 100 scale): 125 g ai/ha
Procedure, shortened: as §1

[3] = postemergence, visual rating, scale 0 to 100 (0 no effect, 100 complete control), 13 to 15 days
[4] = 500 g ai/ha, 0 to 100 scale where 0 is no effect and 100 is complete control
[5] = 125 g ai/ha, postemergence, visual rating, scale 0 to 100 (0 no effect, 100 complete control)
[6] = Postemergence, 62 g ai/ha, scale 0 to 100 (0 no effect, 100 complete control), 13 to 15 days
[7] = 31 g ai/ha, postemergence, visual rating, scale 0 to 100 (0 no effect, 100 complete control), 13 to 15 days
[8] = 125 g ai/ha, preemergence, scale 0 (no effect) to 100 (complete control)
[9] = 250 g ai/ha, preemergence, scale 0 (no effect) to 100 (complete control)
[10] = Preemergence, 62 g ai/ha, scale 0 to 100, 0 no effect, 100 complete control
[11] = 16 g ai/ha, postemergence, 0 is no effect, 100 is complete control
[12] = 16 g ai/ha, preemergence, scale 0 to 100 (0 no effect, 100 complete control)

## FC(F)c1cccc(Oc2ncc(Cl)cn2)c1-n1cc(Br)cn1 [Compound 194, 2-[2-(4-bromo-1H-pyrazol-1-yl)-3-(difluoromethyl)phenoxy]-5-chloropyrimidine]
Large (Lg) crabgrass [1]
  Crabgrass, Large plant response rating (0 to 100 scale): 100
Large (Lg) crabgrass [1]; Digitaria sanguinalis, pre-emergence, 240 h, 500 g ai/ha, 0 to 100 scale where 0 is no effect and 100 is complete control, read-out: Crabgrass, Large plant response rating
  pest or weed control at 500 g/ha: 100%
rice; Oryza sativa, read-out: Plant response rating, Rice
  plant injury at 250 g/ha: 0%
Wild oat; [3]
  Oat, Wild plant response rating: 5
Wild oat; Avena fatua, post-emergence, 125 g ai/ha, postemergence, visual rating, scale 0 to 100 (0 no effect, 100 complete control), read-out: Plant response rating, Oat, Wild
  pest or weed control at 125 g/ha: 40%
Wild oat; Avena fatua, post-emergence, 250 g ai/ha, postemergence, read-out: Plant response rating (0 to 100), Oat, Wild
  pest or weed control at 250 g/ha: 45%
Wild oat; Avena fatua, post-emergence, Postemergence, 62 g ai/ha, scale 0 to 100 (0 no effect, 100 complete control), 13 to 15 days, read-out: Plant response rating, Oat, Wild
  pest or weed control at 62 g/ha: 15%
kochia; Bassia scoparia, post-emergence, 31 g ai/ha, postemergence, visual rating, scale 0 to 100 (0 no effect, 100 complete control), 13 to 15 days, read-out: Kochia plant response rating
  pest or weed control at 31 g/ha: 90%
kochia; Bassia scoparia, post-emergence, 125 g ai/ha, postemergence, visual rating, scale 0 to 100 (0 no effect, 100 complete control), read-out: Plant response rating, Kochia
  pest or weed control at 125 g/ha: 90%
kochia; Bassia scoparia, post-emergence, 250 g ai/ha, postemergence, read-out: Plant response rating (0 to 100), Kochia
  pest or weed control at 250 g/ha: 95%
kochia; Bassia scoparia, post-emergence, Postemergence, 62 g ai/ha, scale 0 to 100 (0 no effect, 100 complete control), 13 to 15 days, read-out: Plant response rating, Kochia
  pest or weed control at 62 g/ha: 90%
ragweed; [3]
  Ragweed plant response rating: 15
ragweed; Ambrosia artemisiifolia, post-emergence, 125 g ai/ha, postemergence, visual rating, scale 0 to 100 (0 no effect, 100 complete control), read-out: Plant response rating, Ragweed
  pest or weed control at 125 g/ha: 50%
ragweed; Ambrosia artemisiifolia, post-emergence, 250 g ai/ha, postemergence, read-out: Plant response rating (0 to 100), Ragweed
  pest or weed control at 250 g/ha: 50%
ragweed; Ambrosia artemisiifolia, post-emergence, Postemergence, 62 g ai/ha, scale 0 to 100 (0 no effect, 100 complete control), 13 to 15 days, read-out: Plant response rating, Ragweed
  pest or weed control at 62 g/ha: 25%
lambsquarters; Chenopodium album, pre-emergence, 125 g ai/ha, preemergence, scale 0 (no effect) to 100 (complete control), read-out: Lambsquarters plant response rating
  pest or weed control at 125 g/ha: 100%
lambsquarters; Chenopodium album, pre-emergence, 250 g ai/ha, preemergence, scale 0 (no effect) to 100 (complete control), read-out: Lambsquarters plant response rating
  pest or weed control at 250 g/ha: 100%
lambsquarters; Chenopodium album, pre-emergence, Preemergence, 62 g ai/ha, scale 0 to 100, 0 no effect, 100 complete control, read-out: Plant response rating, Lambsquarters
  pest or weed control at 62 g/ha: 100%
johnsongrass; Sorghum halepense, pre-emergence, 125 g ai/ha, preemergence, scale 0 (no effect) to 100 (complete control), read-out: Johnsongrass plant response rating
  pest or weed control at 125 g/ha: 80%
johnsongrass; Sorghum halepense, pre-emergence, 250 g ai/ha, preemergence, scale 0 (no effect) to 100 (complete control), read-out: Johnsongrass plant response rating
  pest or weed control at 250 g/ha: 95%
johnsongrass; Sorghum halepense, pre-emergence, Preemergence, 62 g ai/ha, scale 0 to 100, 0 no effect, 100 complete control, read-out: Plant response rating, Johnsongrass
  pest or weed control at 62 g/ha: 25%
Large (Lg) crabgrass [2]; Digitaria sanguinalis, pre-emergence, 125 g ai/ha, preemergence, scale 0 (no effect) to 100 (complete control), read-out: Crabgrass, Large plant response rating
  pest or weed control at 125 g/ha: 100%
Large (Lg) crabgrass [2]; Digitaria sanguinalis, pre-emergence, 250 g ai/ha, preemergence, scale 0 (no effect) to 100 (complete control), read-out: Crabgrass, Large plant response rating
  pest or weed control at 250 g/ha: 100%
Large (Lg) crabgrass [2]; Digitaria sanguinalis, pre-emergence, Preemergence, 62 g ai/ha, scale 0 to 100, 0 no effect, 100 complete control, read-out: Plant response rating, Crabgrass, Large
  pest or weed control at 62 g/ha: 98%
wheat, winter; [3]
  Wheat plant response rating: 0
wheat, winter; Triticum aestivum, post-emergence, 125 g ai/ha, postemergence, visual rating, scale 0 to 100 (0 no effect, 100 complete control), read-out: Plant response rating, Wheat
  plant injury at 125 g/ha: 0%
wheat, winter; Triticum aestivum, post-emergence, 250 g ai/ha, postemergence, read-out: Plant response rating (0 to 100), Wheat
  plant injury at 250 g/ha: 5%
wheat, winter; Triticum aestivum, post-emergence, Postemergence, 62 g ai/ha, scale 0 to 100 (0 no effect, 100 complete control), 13 to 15 days, read-out: Plant response rating, Wheat
  plant injury at 62 g/ha: 0%
corn
  Corn plant response rating (0 to 100 scale): 30
corn; Zea mays, pre-emergence, 240 h, 500 g ai/ha, 0 to 100 scale where 0 is no effect and 100 is complete control, read-out: Corn plant response rating
  plant injury at 500 g/ha: 50%

## N#Cc1cccc(Oc2ncc(Cl)cn2)c1-n1cc(I)cn1 [Compound 204]
Large (Lg) crabgrass [1]
  Crabgrass, Large plant response rating (0 to 100 scale): 100
Large (Lg) crabgrass [1]; [4]
  Crabgrass, Large plant response rating: 100
rice
  Plant response rating, Rice: 20
Wild oat; [3]
  Oat, Wild plant response rating: 20
Wild oat; [5]
  Plant response rating, Oat, Wild: 15
Wild oat; 250 g ai/ha, postemergence
  Plant response rating (0 to 100), Oat, Wild: 15
Wild oat; [6]
  Plant response rating, Oat, Wild: 15
kochia; [7]
  Kochia plant response rating: 90
kochia; [5]
  Plant response rating, Kochia: 100
kochia; 250 g ai/ha, postemergence
  Plant response rating (0 to 100), Kochia: 100
kochia; [6]
  Plant response rating, Kochia: 100
ragweed; [3]
  Ragweed plant response rating: 25
ragweed; [5]
  Plant response rating, Ragweed: 35
ragweed; 250 g ai/ha, postemergence
  Plant response rating (0 to 100), Ragweed: 75
ragweed; [6]
  Plant response rating, Ragweed: 40
lambsquarters; [8]
  Lambsquarters plant response rating: 95
lambsquarters; [9]
  Lambsquarters plant response rating: 98
lambsquarters; [10]
  Plant response rating, Lambsquarters: 98
johnsongrass; [8]
  Johnsongrass plant response rating: 95
johnsongrass; [9]
  Johnsongrass plant response rating: 98
johnsongrass; [10]
  Plant response rating, Johnsongrass: 80
Large (Lg) crabgrass [2]; [8]
  Crabgrass, Large plant response rating: 100
Large (Lg) crabgrass [2]; [9]
  Crabgrass, Large plant response rating: 100
Large (Lg) crabgrass [2]; [10]
  Plant response rating, Crabgrass, Large: 100
wheat, winter; [3]
  Wheat plant response rating: 5
wheat, winter; [5]
  Plant response rating, Wheat: 10
wheat, winter; 250 g ai/ha, postemergence
  Plant response rating (0 to 100), Wheat: 10
wheat, winter; [6]
  Plant response rating, Wheat: 5
corn
  Corn plant response rating (0 to 100 scale): 0
corn; [4]
  Corn plant response rating: 30

## N#Cc1cnn(-c2c(Oc3ncc(Cl)cn3)cccc2C(F)F)c1 [Compound 236]
Large (Lg) crabgrass [1]
  Crabgrass, Large plant response rating (0 to 100 scale): 100
Large (Lg) crabgrass [1]; [4]
  Crabgrass, Large plant response rating: 100
rice
  Plant response rating, Rice: 0
Wild oat; [11]
  Plant response rating (0 to 100), Oat, Wild: 0
Wild oat; [3]
  Oat, Wild plant response rating: 0
Wild oat; [5]
  Plant response rating, Oat, Wild: 5
Wild oat; [6]
  Plant response rating, Oat, Wild: 5
kochia; [11]
  Plant response rating (0 to 100), Kochia: 30
kochia; [7]
  Kochia plant response rating: 80
kochia; [5]
  Plant response rating, Kochia: 90
kochia; [6]
  Plant response rating, Kochia: 85
ragweed; [11]
  Plant response rating (0 to 100), Ragweed: 10
ragweed; [3]
  Ragweed plant response rating: 15
ragweed; [5]
  Plant response rating, Ragweed: 75
ragweed; [6]
  Plant response rating, Ragweed: 40
lambsquarters; [12]
  Lambsquarters plant response rating: 98
lambsquarters; [8]
  Lambsquarters plant response rating: 100
lambsquarters; [10]
  Plant response rating, Lambsquarters: 100
johnsongrass; [12]
  Johnsongrass plant response rating: 5
johnsongrass; [8]
  Johnsongrass plant response rating: 85
johnsongrass; [10]
  Plant response rating, Johnsongrass: 60
Large (Lg) crabgrass [2]; [12]
  Crabgrass, Large plant response rating: 90
Large (Lg) crabgrass [2]; [8]
  Crabgrass, Large plant response rating: 100
Large (Lg) crabgrass [2]; [10]
  Plant response rating, Crabgrass, Large: 100
wheat, winter; [11]
  Plant response rating (0 to 100), Wheat: 0
wheat, winter; [3]
  Wheat plant response rating: 0
wheat, winter; [5]
  Plant response rating, Wheat: 0
wheat, winter; [6]
  Plant response rating, Wheat: 0
corn
  Corn plant response rating (0 to 100 scale): 20
corn; [4]
  Corn plant response rating: 90

Reference: patent US9695155B2, “Herbicidal substituted pyrimidinyloxy benzene compounds” (E. I. DU PONT DE NEMOURS AND COMPANY, priority 2013, dated 2017)
